In PubChem BioAssay (NCI):
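In this assay, cells in 96-well plates receive the compound at five concentrations for 48 hours. Endpoints are linearly interpolated between the surrounding concentrations. TGI denotes the concentration required for complete inhibition of growth.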

Legend:
Experiment in all cases: NCI-60 cell line screen, 48 h
786-0 renal = tested on: 786-0 renal
A498 renal = tested on: A498 renal
A549 NSCLC = tested on: A549 NSCLC
ACHN renal = tested on: ACHN renal
BT-549 breast = tested on: BT-549 breast
CAKI-1 renal = tested on: CAKI-1 renal
CCRF-CEM leukemia = tested on: CCRF-CEM leukemia
COLO 205 colon = tested on: COLO 205 colon
DU-145 prostate = tested on: DU-145 prostate
EKVX NSCLC = tested on: EKVX NSCLC
HCC-2998 colon = tested on: HCC-2998 colon
HCT-116 colon = tested on: HCT-116 colon
HCT-15 colon = tested on: HCT-15 colon
HL-60(TB) leukemia = tested on: HL-60(TB) leukemia
HOP-62 NSCLC = tested on: HOP-62 NSCLC
HOP-92 NSCLC = tested on: HOP-92 NSCLC
HS 578T breast = tested on: HS 578T breast
HT29 colon = tested on: HT29 colon
IGROV1 ovarian = tested on: IGROV1 ovarian
K-562 leukemia = tested on: K-562 leukemia
KM12 colon = tested on: KM12 colon
LOX IMVI melanoma = tested on: LOX IMVI melanoma
M14 melanoma = tested on: M14 melanoma
MALME-3M melanoma = tested on: MALME-3M melanoma
MCF7 breast = tested on: MCF7 breast
MDA-MB-231 breast = tested on: MDA-MB-231 breast
MDA-MB-435 = tested on: MDA-MB-435
MDA-N = tested on: MDA-N
MOLT-4 leukemia = tested on: MOLT-4 leukemia
NCI-H226 lung = tested on: NCI-H226 lung
NCI-H23 lung = tested on: NCI-H23 lung
NCI-H460 lung = tested on: NCI-H460 lung
NCI-H522 lung = tested on: NCI-H522 lung
NCI/ADR-RES ovarian = tested on: NCI/ADR-RES ovarian
OVCAR-3 ovarian = tested on: OVCAR-3 ovarian
OVCAR-4 ovarian = tested on: OVCAR-4 ovarian
OVCAR-5 ovarian = tested on: OVCAR-5 ovarian
OVCAR-8 ovarian = tested on: OVCAR-8 ovarian
PC-3 prostate = tested on: PC-3 prostate
RPMI-8226 leukemia = tested on: RPMI-8226 leukemia
RXF 393 renal = tested on: RXF 393 renal
SF-268 CNS = tested on: SF-268 CNS
SF-295 CNS = tested on: SF-295 CNS
SF-539 CNS = tested on: SF-539 CNS
SK-MEL-2 melanoma = tested on: SK-MEL-2 melanoma
SK-MEL-28 melanoma = tested on: SK-MEL-28 melanoma
SK-MEL-5 melanoma = tested on: SK-MEL-5 melanoma
SK-OV-3 ovarian = tested on: SK-OV-3 ovarian
SN12C renal = tested on: SN12C renal
SNB-19 CNS = tested on: SNB-19 CNS
SNB-75 CNS = tested on: SNB-75 CNS
SR leukemia = tested on: SR leukemia
SW-620 colon = tested on: SW-620 colon
T-47D breast = tested on: T-47D breast
TK-10 renal = tested on: TK-10 renal
U251 CNS = tested on: U251 CNS
UACC-257 melanoma = tested on: UACC-257 melanoma
UACC-62 melanoma = tested on: UACC-62 melanoma
UO-31 renal = tested on: UO-31 renal

Brc1cccc(/C=C/CN2CCN(CCOC(c3ccccc3)c3ccccc3)CC2)c1 was tested, and the TGI (786-0 renal) was 31.7 µM, the TGI (A498 renal) was 32 µM and the TGI (A549 NSCLC) was 31.6 µM. The TGI (ACHN renal) was 33.1 µM, the TGI (BT-549 breast) was 31.1 µM and the TGI (CAKI-1 renal) was 30.2 µM. It also gave a TGI (CCRF-CEM leukemia) of 29.5 µM, a TGI (COLO 205 colon) of 36.2 µM and a TGI (DU-145 prostate) of 27.4 µM. For the same molecule, the TGI (EKVX NSCLC) was 40.8 µM, the TGI (HCC-2998 colon) was 21.3 µM and the TGI (HCT-116 colon) was 28.9 µM. For the same molecule, the TGI (HCT-15 colon) was 40.1 µM, the TGI (HL-60(TB) leukemia) was 27.9 µM and the TGI (HOP-62 NSCLC) was 30.1 µM. The TGI (HOP-92 NSCLC) was 17.8 µM, the TGI (HS 578T breast) was 52 µM and the TGI (HT29 colon) was 24.2 µM. It also gave a TGI (IGROV1 ovarian) of 29.8 µM, a TGI (K-562 leukemia) of 28.6 µM and a TGI (KM12 colon) of 31.3 µM. For the same molecule, the TGI (LOX IMVI melanoma) was 27.6 µM, the TGI (M14 melanoma) was 27.1 µM and the TGI (MALME-3M melanoma) was 31.5 µM. For the same molecule, the TGI (MCF7 breast) was 29.5 µM, the TGI (MDA-MB-231 breast) was 29.1 µM and the TGI (MDA-MB-435) was 25.2 µM. It also gave a TGI (MDA-N) of 32.9 µM, a TGI (MOLT-4 leukemia) of 31.1 µM and a TGI (NCI-H226 lung) of 38.2 µM. The TGI (NCI-H23 lung) was 36.9 µM, the TGI (NCI-H460 lung) was 28.1 µM and the TGI (NCI-H522 lung) was 29.3 µM. For the same molecule, the TGI (NCI/ADR-RES ovarian) was 30.4 µM, the TGI (OVCAR-3 ovarian) was 30.2 µM and the TGI (OVCAR-4 ovarian) was 25.2 µM. It also gave a TGI (OVCAR-5 ovarian) of 34.7 µM, a TGI (OVCAR-8 ovarian) of 29.7 µM and a TGI (PC-3 prostate) of 26.5 µM. For the same molecule, the TGI (RPMI-8226 leukemia) was 19.4 µM, the TGI (RXF 393 renal) was 24.6 µM and the TGI (SF-268 CNS) was 39.6 µM. It also gave a TGI (SF-295 CNS) of 32.6 µM, a TGI (SF-539 CNS) of 32.4 µM and a TGI (SK-MEL-2 melanoma) of 33.6 µM. The TGI (SK-MEL-28 melanoma) was 37.5 µM, the TGI (SK-MEL-5 melanoma) was 33.6 µM and the TGI (SK-OV-3 ovarian) was 34.9 µM. It also gave a TGI (SN12C renal) of 32.3 µM, a TGI (SNB-19 CNS) of 37.7 µM and a TGI (SNB-75 CNS) of 20.2 µM. The TGI (SR leukemia) was 28.3 µM, the TGI (SW-620 colon) was 45.4 µM and the TGI (T-47D breast) was 18.6 µM. For the same molecule, the TGI (TK-10 renal) was 33.9 µM, the TGI (U251 CNS) was 27.5 µM and the TGI (UACC-257 melanoma) was 33.4 µM. It also gave a TGI (UACC-62 melanoma) of 31.8 µM and a TGI (UO-31 renal) of 27.7 µM.

For COC(=O)c1ccccc1C1CN=NC12Cc1ccc3ccccc3c1C2=O (stereo not drawn), the TGI (786-0 renal) was over 100 µM, the TGI (A498 renal) was over 100 µM and the TGI (A549 NSCLC) was over 100 µM. For the same molecule, the TGI (ACHN renal) was over 100 µM, the TGI (BT-549 breast) was over 100 µM and the TGI (CAKI-1 renal) was over 100 µM. It also gave a TGI (CCRF-CEM leukemia) of over 100 µM, a TGI (COLO 205 colon) of over 100 µM and a TGI (DU-145 prostate) of over 100 µM. It also gave a TGI (EKVX NSCLC) of over 100 µM, a TGI (HCC-2998 colon) of over 100 µM and a TGI (HCT-15 colon) of over 100 µM. For the same molecule, the TGI (HL-60(TB) leukemia) was over 100 µM, the TGI (HOP-92 NSCLC) was over 100 µM and the TGI (HS 578T breast) was over 100 µM. The TGI (IGROV1 ovarian) was over 100 µM, the TGI (K-562 leukemia) was over 100 µM and the TGI (KM12 colon) was over 100 µM. The TGI (LOX IMVI melanoma) was over 100 µM, the TGI (M14 melanoma) was over 100 µM and the TGI (MALME-3M melanoma) was over 100 µM. It also gave a TGI (MCF7 breast) of over 100 µM, a TGI (MDA-MB-231 breast) of over 100 µM and a TGI (MDA-MB-435) of over 100 µM. The TGI (MDA-N) was over 100 µM, the TGI (MOLT-4 leukemia) was over 100 µM and the TGI (NCI-H226 lung) was over 100 µM. The TGI (NCI-H460 lung) was over 100 µM, the TGI (NCI-H522 lung) was over 100 µM and the TGI (NCI/ADR-RES ovarian) was over 100 µM. The TGI (OVCAR-3 ovarian) was over 100 µM, the TGI (OVCAR-4 ovarian) was over 100 µM and the TGI (OVCAR-5 ovarian) was over 100 µM. The TGI (OVCAR-8 ovarian) was over 100 µM, the TGI (PC-3 prostate) was over 100 µM and the TGI (RPMI-8226 leukemia) was over 100 µM. The TGI (RXF 393 renal) was over 100 µM, the TGI (SF-268 CNS) was over 100 µM and the TGI (SF-295 CNS) was over 100 µM. The TGI (SF-539 CNS) was over 100 µM, the TGI (SK-MEL-2 melanoma) was over 100 µM and the TGI (SK-MEL-28 melanoma) was over 100 µM. For the same molecule, the TGI (SK-MEL-5 melanoma) was over 100 µM, the TGI (SN12C renal) was over 100 µM and the TGI (SNB-19 CNS) was over 100 µM. The TGI (SNB-75 CNS) was over 100 µM, the TGI (SR leukemia) was over 100 µM and the TGI (SW-620 colon) was over 100 µM. The TGI (T-47D breast) was 96.9 µM, the TGI (TK-10 renal) was over 100 µM and the TGI (U251 CNS) was over 100 µM. It also gave a TGI (UACC-257 melanoma) of over 100 µM, a TGI (UACC-62 melanoma) of over 100 µM and a TGI (UO-31 renal) of over 100 µM.
